Assay results reported in ChEMBL document CHEMBL5360622, “Leucettinibs, a Class of DYRK/CLK Kinase Inhibitors Inspired by the Marine Sponge Natural Product Leucettamine B” (J Med Chem, 2023).

Assays:
[1] = molecular target: T1, Dual specificity tyrosine-phosphorylation-regulated kinase 4 (Homo sapiens, UniProt Q9NR20)
T1 sequence (Q9NR20 whole entry): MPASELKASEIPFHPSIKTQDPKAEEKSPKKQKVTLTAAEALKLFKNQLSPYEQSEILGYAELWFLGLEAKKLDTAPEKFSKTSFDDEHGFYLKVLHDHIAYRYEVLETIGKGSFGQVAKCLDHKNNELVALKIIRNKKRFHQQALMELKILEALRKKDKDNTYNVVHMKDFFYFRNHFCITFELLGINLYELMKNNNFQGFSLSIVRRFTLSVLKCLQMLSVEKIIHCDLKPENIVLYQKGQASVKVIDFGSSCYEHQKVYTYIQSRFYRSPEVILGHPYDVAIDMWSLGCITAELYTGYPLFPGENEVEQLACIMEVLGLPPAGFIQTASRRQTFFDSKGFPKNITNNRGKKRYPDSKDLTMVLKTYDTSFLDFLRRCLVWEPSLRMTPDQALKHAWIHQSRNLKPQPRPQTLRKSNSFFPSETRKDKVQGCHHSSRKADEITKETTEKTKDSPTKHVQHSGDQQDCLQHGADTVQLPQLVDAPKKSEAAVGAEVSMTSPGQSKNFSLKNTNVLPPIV

[2] = molecular target: Casein kinase I isoform epsilon (Homo sapiens, UniProt P49674)
[3] = molecular target: Glycogen synthase kinase-3 beta (Homo sapiens, UniProt P49841); assay type: cell-based, Sf9
[4] = molecular target: T2, Dual specificity tyrosine-phosphorylation-regulated kinase 2 (Homo sapiens, UniProt Q92630)
T2 sequence (Q92630 whole entry): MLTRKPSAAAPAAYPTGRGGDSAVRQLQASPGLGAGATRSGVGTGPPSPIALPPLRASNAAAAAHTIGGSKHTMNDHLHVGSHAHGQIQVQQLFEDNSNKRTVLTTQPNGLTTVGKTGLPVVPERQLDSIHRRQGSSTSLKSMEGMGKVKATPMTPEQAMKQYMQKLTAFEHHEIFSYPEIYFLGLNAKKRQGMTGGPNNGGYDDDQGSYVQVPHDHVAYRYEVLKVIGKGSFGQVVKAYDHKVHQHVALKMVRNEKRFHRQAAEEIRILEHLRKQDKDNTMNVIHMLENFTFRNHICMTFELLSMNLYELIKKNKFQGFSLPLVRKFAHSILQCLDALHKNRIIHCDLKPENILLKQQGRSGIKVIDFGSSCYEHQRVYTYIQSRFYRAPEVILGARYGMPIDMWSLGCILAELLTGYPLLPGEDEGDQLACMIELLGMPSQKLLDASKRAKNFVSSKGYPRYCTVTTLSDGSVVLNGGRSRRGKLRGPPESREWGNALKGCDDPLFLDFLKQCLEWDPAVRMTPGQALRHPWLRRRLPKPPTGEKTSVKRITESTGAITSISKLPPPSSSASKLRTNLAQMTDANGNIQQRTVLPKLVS

[5] = molecular target: Dual specificity protein kinase CLK2 (Homo sapiens, UniProt P49760)
[6] = molecular target: Dual specificity protein kinase CLK3 (Homo sapiens, UniProt P49761); assay type: cell-based, Sf9
[7] = molecular target: Dual specificity protein kinase CLK4 (Homo sapiens, UniProt Q9HAZ1)
[8] = molecular target: Cyclin-dependent kinase 5/CDK5 activator 1 (Homo sapiens, UniProt Q00535); assay type: cell-based, Sf9
[9] = molecular target: T3, Dual specificity tyrosine-phosphorylation-regulated kinase 3 (Homo sapiens, UniProt O43781)
T3 sequence (O43781 whole entry): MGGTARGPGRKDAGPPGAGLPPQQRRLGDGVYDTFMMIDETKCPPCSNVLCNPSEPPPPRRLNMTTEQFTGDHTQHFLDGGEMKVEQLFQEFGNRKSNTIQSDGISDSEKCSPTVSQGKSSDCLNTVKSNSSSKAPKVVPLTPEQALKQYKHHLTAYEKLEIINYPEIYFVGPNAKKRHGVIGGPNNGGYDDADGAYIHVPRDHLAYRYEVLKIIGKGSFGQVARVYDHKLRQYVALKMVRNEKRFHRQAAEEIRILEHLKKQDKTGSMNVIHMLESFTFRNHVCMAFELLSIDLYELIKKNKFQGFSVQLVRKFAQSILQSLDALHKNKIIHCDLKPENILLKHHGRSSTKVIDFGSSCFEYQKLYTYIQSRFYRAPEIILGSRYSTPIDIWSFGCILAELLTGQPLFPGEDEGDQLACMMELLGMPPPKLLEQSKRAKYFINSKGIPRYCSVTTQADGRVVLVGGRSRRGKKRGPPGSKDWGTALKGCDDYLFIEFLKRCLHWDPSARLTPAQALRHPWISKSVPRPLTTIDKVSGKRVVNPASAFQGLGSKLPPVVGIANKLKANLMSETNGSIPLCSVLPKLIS

Sequence of Dual specificity protein kinase CLK4 (Q9HAZ1 whole entry): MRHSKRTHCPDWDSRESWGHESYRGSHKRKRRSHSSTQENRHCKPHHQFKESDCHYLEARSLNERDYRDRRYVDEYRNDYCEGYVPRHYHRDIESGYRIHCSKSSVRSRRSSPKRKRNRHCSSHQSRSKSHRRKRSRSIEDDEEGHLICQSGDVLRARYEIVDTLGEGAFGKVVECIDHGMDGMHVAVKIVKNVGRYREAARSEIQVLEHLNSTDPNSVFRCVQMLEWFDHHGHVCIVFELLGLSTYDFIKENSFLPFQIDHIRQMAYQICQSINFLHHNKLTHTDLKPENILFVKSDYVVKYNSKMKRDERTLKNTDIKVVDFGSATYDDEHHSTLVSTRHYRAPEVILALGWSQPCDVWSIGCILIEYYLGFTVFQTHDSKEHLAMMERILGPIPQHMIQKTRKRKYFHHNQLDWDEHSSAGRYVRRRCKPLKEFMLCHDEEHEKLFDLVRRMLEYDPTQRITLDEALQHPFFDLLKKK
Sequence of Dual specificity protein kinase CLK3 (P49761 whole entry): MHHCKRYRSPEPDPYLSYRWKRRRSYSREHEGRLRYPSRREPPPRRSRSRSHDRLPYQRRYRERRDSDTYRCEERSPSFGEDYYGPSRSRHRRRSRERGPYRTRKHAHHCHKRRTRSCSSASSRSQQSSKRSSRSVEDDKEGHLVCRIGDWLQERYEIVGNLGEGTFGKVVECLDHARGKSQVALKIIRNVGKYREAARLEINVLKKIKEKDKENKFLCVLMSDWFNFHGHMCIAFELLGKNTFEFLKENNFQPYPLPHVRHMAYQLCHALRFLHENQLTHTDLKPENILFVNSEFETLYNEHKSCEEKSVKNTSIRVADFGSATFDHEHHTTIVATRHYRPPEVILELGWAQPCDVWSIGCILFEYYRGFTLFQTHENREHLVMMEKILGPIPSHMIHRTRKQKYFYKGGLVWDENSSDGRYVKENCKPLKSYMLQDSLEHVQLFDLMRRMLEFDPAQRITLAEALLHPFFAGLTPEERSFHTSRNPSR
Sequence of Dual specificity protein kinase CLK2 (P49760 whole entry): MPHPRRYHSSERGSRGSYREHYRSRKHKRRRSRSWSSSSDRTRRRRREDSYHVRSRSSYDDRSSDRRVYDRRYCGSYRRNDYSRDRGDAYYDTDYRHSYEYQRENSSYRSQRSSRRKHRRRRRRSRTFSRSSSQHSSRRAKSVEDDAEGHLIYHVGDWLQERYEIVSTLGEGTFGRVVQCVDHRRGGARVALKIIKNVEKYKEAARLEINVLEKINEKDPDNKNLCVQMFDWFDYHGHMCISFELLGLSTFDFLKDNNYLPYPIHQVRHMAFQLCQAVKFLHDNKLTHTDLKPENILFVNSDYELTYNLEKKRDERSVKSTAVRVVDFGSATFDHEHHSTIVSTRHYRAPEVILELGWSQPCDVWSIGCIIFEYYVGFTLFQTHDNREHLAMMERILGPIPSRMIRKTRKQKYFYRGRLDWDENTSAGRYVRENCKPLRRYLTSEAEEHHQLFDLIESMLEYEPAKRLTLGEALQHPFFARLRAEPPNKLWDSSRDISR
Sequence of Casein kinase I isoform epsilon (P49674 whole entry, canonical isoform): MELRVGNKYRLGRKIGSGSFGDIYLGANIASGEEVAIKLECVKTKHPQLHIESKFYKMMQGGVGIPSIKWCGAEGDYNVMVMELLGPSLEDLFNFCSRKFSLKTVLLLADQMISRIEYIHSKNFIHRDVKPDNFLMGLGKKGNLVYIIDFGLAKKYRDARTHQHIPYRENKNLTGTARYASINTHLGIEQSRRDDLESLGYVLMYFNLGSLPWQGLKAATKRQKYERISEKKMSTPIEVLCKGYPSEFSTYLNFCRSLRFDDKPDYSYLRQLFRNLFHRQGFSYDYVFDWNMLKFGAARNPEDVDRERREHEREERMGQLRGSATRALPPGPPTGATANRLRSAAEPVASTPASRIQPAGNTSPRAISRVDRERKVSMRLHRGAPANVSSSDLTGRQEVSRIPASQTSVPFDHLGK
Sequence of Glycogen synthase kinase-3 beta (P49841 whole entry): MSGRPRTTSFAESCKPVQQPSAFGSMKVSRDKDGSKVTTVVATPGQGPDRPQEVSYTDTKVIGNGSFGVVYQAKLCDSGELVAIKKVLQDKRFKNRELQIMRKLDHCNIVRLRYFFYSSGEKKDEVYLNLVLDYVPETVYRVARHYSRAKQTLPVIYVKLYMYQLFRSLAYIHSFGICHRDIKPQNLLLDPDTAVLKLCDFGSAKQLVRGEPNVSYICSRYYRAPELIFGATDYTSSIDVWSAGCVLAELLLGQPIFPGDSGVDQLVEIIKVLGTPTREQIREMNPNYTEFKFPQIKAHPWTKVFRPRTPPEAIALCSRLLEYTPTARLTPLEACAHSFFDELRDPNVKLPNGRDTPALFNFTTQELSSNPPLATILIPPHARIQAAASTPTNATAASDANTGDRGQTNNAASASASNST
Sequence of Cyclin-dependent kinase 5/CDK5 activator 1 (Q00535 whole entry): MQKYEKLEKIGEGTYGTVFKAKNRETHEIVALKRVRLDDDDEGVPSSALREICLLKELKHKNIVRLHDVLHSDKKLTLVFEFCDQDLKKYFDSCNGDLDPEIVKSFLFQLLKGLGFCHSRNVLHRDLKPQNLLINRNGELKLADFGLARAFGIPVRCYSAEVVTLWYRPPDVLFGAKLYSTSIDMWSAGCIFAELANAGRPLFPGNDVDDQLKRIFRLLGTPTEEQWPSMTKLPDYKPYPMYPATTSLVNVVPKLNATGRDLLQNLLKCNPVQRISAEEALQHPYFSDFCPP
Sequence of Cyclin-dependent kinase 5/CDK5 activator 1 (Q15078 whole entry, further chain): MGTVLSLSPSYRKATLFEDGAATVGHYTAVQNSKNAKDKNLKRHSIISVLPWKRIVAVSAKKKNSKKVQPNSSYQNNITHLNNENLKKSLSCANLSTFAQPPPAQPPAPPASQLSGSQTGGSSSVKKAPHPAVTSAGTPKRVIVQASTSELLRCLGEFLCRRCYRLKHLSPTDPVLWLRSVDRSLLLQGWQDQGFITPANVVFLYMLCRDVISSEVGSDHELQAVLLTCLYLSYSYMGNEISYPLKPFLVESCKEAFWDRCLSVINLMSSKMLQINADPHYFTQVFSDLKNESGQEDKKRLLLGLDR

| SMILES | IC50 [1] [nM] | IC50 [2] [µM] | IC50 [3] [µM] | IC50 [4] [nM] | IC50 [5] [nM] | IC50 [6] [nM] | IC50 [7] [nM] | IC50 [8] [µM] | IC50 [9] [nM] |
| --- | --- | --- | --- | --- | --- | --- | --- | --- | --- |
| O=C1NC(N[C@@H](CO)Cc2ccccc2)=N/C1=C\c1ccc2ncsc2c1 | 1150 | > 10 | 2.74 | 886 | 90 | 295 | 14 | > 10 | – |
| O=C1NC(Nc2ccccc2)=N/C1=C\c1ccc2c(c1)OCO2 | – | – | 0.6 | – | – | 1200 | 23 | – | – |
| CN1CCC(NC2=N/C(=C\c3ccc4ncsc4c3)C(=O)N2)C1=O (racemic) | 4890 | > 10 | > 10 | 2810 | – | 2700 | 12 | > 10 | 2320 |
| O=C1NC(N[C@@H]2c3ccccc3C[C@H]2O)=N/C1=C\c1ccc2ncsc2c1 | 180 | > 10 | > 10 | 390 | – | 2040 | 11 | > 10 | – |
| O=C1NC(NCCc2ccccn2)=N/C1=C\c1ccc2ncsc2c1 | 2150 | > 10 | 3.71 | 1350 | 349 | 697 | 34 | > 10 | – |
| Cc1ccc(NC2=N/C(=C\c3ccc4ncsc4c3)C(=O)N2)cc1F | – | > 10 | > 10 | 6530 | 3520 | > 10000 | 71 | > 10 | 3060 |
| O=C1NC(NCc2nc3ccccc3s2)=N/C1=C\c1ccc2ncsc2c1 | > 10000 | > 10 | 9.03 | > 10000 | – | 7010 | 71 | > 10 | > 10000 |
| O=C1NC(NCCCn2ccnc2)=N/C1=C\c1ccc2ncsc2c1 | – | > 10 | 6.19 | 592 | – | 1790 | 12 | > 10 | – |
| CC(=O)OC12CC3CC(CC(NC4=N/C(=C\c5ccc6ncsc6c5)C(=O)N4)(C3)C1)C2 | 597 | > 10 | 2.44 | 145 | 14 | 1660 | 19 | 4.66 | – |
| CO[C@@H]1Cc2ccccc2[C@H]1NC1=N/C(=C\c2ccc3ncsc3c2)C(=O)N1 (racemic) | – | > 10 | 1.27 | 235 | 50 | 848 | 14 | > 10 | 741 |
| CN1CCC2(CC1)CC(NC1=N/C(=C\c3ccc4ncsc4c3)C(=O)N1)C2 | – | > 10 | > 10 | 4470 | 851 | 7460 | 107 | > 10 | 403 |
| CO[C@H]1CC[C@H](NC2=N/C(=C\c3ccc4ncsc4c3)C(=O)N2)CC1 | 2600 | > 10 | 13 | 2300 | – | 880 | 24 | > 10 | 1900 |
| Cc1cnc(CNC2=N/C(=C\c3ccc4ncsc4c3)C(=O)N2)cn1 | 8330 | > 10 | 9.03 | 3950 | 303 | 4140 | 32 | > 10 | – |
| COC(CNC1=N/C(=C\c2ccc3ncsc3c2)C(=O)N1)c1ccccc1 (racemic) | 1560 | > 10 | 4.31 | 352 | 148 | 270 | – | > 10 | 1510 |
| O=C1NC(NC(CF)c2ccccc2)=N/C1=C\c1ccc2ncsc2c1 (racemic) | 459 | > 10 | 0.947 | 530 | 13 | 293 | – | > 10 | 477 |
| CO[C@H]1Cc2ccccc2[C@H]1NC1=N/C(=C\c2ccc3ncsc3c2)C(=O)N1 (racemic) | – | > 10 | > 10 | 5170 | 3480 | > 10000 | 100 | > 10 | > 10000 |
| O=C1NC(N[C@H]2C3CC4CC2C[C@](O)(C4)C3)=N/C1=C\c1ccc2ncsc2c1 | 321 | 9.8 | 5.37 | 296 | 11 | 626 | – | 2.3 | 122 |
| O=C1NC(N[C@@H](CO)CC2CCCCC2)=N/C1=C\c1ccc2ncsc2c1 | 3120 | > 10 | 3.31 | – | 100 | 4390 | 26 | > 10 | – |
| Cc1ccc(CNC2=N/C(=C\c3ccc4ncsc4c3)C(=O)N2)cc1C | – | > 10 | > 10 | > 10000 | 31 | 1240 | 14 | > 10 | > 10000 |
| O=C1NC(N[C@H]2CN3CCC2CC3)=N/C1=C\c1ccc2ncsc2c1 | – | – | > 10 | – | 40 | 1750 | 11 | > 10 | 199 |
| COC(=O)C1(NC2=N/C(=C\c3ccc4ncsc4c3)C(=O)N2)C2CC3CC(C2)CC1C3 (stereo unspecified) | 1740 | > 10 | 0.659 | 702 | 531 | 167 | 161 | 3.29 | – |
| CN1CCC(NC2=N/C(=C\c3ccc4ncsc4c3)C(=O)N2)CC1 | > 10000 | > 10 | > 10 | 7830 | – | 3860 | 78 | > 10 | 647 |
| O=C1NC(N[C@@H]2CCCOC2)=N/C1=C\c1ccc2ncsc2c1 | 1850 | > 10 | 9.2 | 1180 | 236 | 604 | – | > 10 | 1640 |
| O=C1NC(NC2CCCCOC2)=N/C1=C\c1ccc2ncsc2c1 (racemic) | 383 | > 10 | 2.77 | 704 | 51 | 428 | – | 3.89 | 495 |
| Cc1nc2ccc(/C=C3\N=C(NC4CCCCC4)NC3=O)cc2s1 | > 10000 | > 10 | > 10 | 4710 | – | 5040 | 351 | > 10 | – |
| O=C1NC(N[C@H]2c3ccccc3C[C@@H]2O)=N/C1=C\c1ccc2ncsc2c1 | 2040 | > 10 | 0.429 | 1540 | – | 713 | 3 | > 10 | – |
| O=C1NC(N[C@@H]2CN3CCC2CC3)=N/C1=C\c1ccc2ncsc2c1 | – | – | > 10 | – | 1170 | 4350 | 169 | > 10 | 483 |
